Read-outs that look alike come from different tables or passages of the source.
What was measured:
[1] = Plasma free fraction (fp) by ultrafiltration; type: in vitro ADME, rhesus monkey; details: monkey, plasma (separated from spiked whole blood)
Protocol: The unbound fraction of [^18F]SDM-16 in plasma (fp) of rhesus monkey was measured in triplicate using the ultrafiltration method. Briefly, [^18F]SDM-16 solution was added to 3 mL of whole blood. After incubation at ambient temperature for 5 min, the blood sample was centrifuged at 3900 rpm for 5 min. A sample of the supernatant plasma (0.3 mL) was loaded onto the reservoir of a Centrifree® Ultrafiltration device (Merck Millipore Ltd. Tullagreen, Carrigtwohill, Co. Cork, IRELAND) in triplicate and centrifuged at 1228 g for 20 min. The fp value was calculated as the ratio of radioactivity in the filtrate to that in the plasma.

[2] = Brain PET imaging with 1TC kinetic modeling; details: rhesus monkey, in vivo
SV2A [3] = experiment: Brain PET imaging with 1TC kinetic modeling
SV2A [4] = details: 1TC, cited from earlier work
[5] = Free base fraction in plasma by modified Henderson-Hasselbalch equation (Eq. 1); details: Eq. 1, plasma pH 7.4
[6] = Plasma radiometabolite analysis during PET scans; type: in vivo, rhesus monkeys; details: 30 min p.i.
Protocol: Arterial blood samples were collected during the PET scans to measure the radioactivity in plasma for generation of the metabolite-corrected arterial plasma input function. Plasma radiometabolite analysis was performed using the column-switching method, following a published protocol. Briefly, arterial blood samples were collected at 3-, 8-, 15-, 30-, 60-, 90-, 120-, and 180-min post-injection (p. i.), treated with urea (8 M), filtered, and injected onto a self-packed short column (4.6 × 19 mm) eluting with 1% MeCN in water at a flow rate of 2 mL/min. The sample was then back flushed onto a Gemini-NX column (5 μm, 4.6 mm × 250 mm) eluting with 40% MeCN/60% 0.1 M ammonium formate (pH 6.4) at a flow rate of 1.2 mL/min. The eluent was fraction-collected using an automated spectrum chromatography CF-1 fraction collector. Activity in the whole blood, plasma, filtrated plasma-urea mix, filters, and HPLC fractions were counted with automatic gamma well-counter (Wizard 2, PerkinElmer). The sample recovery rate, extraction efficiency, and HPLC fraction recovery were monitored. The unmetabolized [^18F]SDM-16 parent fraction was determined as the ratio of the sum of radioactivity in fractions containing the parent compound to the total amount of radioactivity collected and fitted with inverted Gamma4 approaches.
[^18F]SDM-16 had higher metabolite-corrected plasma SUV than the other SV2A radiotracers, indicating slower plasma clearance and higher metabolic stability (Fig. 2a). Whole-blood and plasma-input functions were highly consistent between the two animals, with a stable plasma to whole-blood ratio of 0.93 ± 0.13 over the entire 180-min acquisition period (Fig. S1).

[7] = female rhesus macaques, 1-h voiding model; cited from earlier work
SV2A [8] = molecular target: SV2A (Macaca mulatta, UniProt H9EQH8); details: previously determined; cited from earlier work
SV2A (Macaca mulatta, UniProt H9EQH8), sequence (H9EQH8 1-742): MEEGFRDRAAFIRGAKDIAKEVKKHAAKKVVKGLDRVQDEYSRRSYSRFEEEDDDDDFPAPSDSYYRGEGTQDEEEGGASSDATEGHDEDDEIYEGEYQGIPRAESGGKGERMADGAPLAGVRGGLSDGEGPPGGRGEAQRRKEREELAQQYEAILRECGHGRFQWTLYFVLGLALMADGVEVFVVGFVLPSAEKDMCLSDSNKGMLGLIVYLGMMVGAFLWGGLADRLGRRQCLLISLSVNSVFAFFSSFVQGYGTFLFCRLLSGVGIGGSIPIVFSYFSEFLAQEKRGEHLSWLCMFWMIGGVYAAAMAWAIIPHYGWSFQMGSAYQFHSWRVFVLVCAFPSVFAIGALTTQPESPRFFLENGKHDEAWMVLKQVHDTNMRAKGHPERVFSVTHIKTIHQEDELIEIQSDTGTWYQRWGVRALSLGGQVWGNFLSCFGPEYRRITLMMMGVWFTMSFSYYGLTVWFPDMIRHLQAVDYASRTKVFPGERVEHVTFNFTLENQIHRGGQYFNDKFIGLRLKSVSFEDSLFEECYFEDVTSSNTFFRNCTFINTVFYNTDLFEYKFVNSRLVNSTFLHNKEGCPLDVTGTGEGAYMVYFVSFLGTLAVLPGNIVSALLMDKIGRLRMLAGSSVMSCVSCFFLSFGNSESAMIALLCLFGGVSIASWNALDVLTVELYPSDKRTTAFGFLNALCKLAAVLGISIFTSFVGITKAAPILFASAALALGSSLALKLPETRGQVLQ

[9] = Measurement of lipophilicity (octanol / PBS pH 7.4); type: physicochemical; details: octanol/PBS pH 7.4
Protocol: The logP of [^18F]SDM-16 was determined by a method modified from previously published procedures. Briefly, an aliquot of […] (10 µCi) of the radioligand was added to a 2-mL microtube containing 0.8 mL of octanol and 0.8 mL of 1 × phosphate buffered saline (1 × PBS, pH 7.4). The mixture was vortexed for 30 s and then centrifuged at 2000 g for 2 min. A subsample of the octanol (0.1 mL) and 1 × PBS (0.5 mL) layers was evaluated with a gamma counter. The major portion of the octanol layer (0.5 mL) was diluted with another 0.3 mL of octanol, mixed with a fresh portion of 0.8 mL of PBS, vortexed, centrifuged, and analyzed as described above. This process was repeated until consistent log P values were obtained, with five consecutive equilibration procedures being performed for each logP measurement. Four separate measurements were performed for [^18F]SDM-16 on different days.

[10] = conjugate acid; cited from earlier work

Cc1cnccc1CN1C[C@@H](c2cc(F)cc([18F])c2)CC1=O [[^18F]SynVesT-1]
fraction unbound at 5 min [1]: 0.43 | fraction unbound [2]: 0.101 | BPND, VND method (SV2A [3]; Amygdala): 4.24 ± 4.05 | BPND, VT(CS) method (SV2A [3]; Amygdala): 1.9 ± 1.1 | K1 (SV2A [3]; Amygdala): 0.56 ± 0.36 mL/cm^3 per min | BPND, VND method (SV2A [3]; Anterior cingulate): 8.44 ± 4.27 | BPND, VT(CS) method (SV2A [3]; Anterior cingulate): 4.1 ± 0.7 | K1 (SV2A [3]; Anterior cingulate): 1.05 ± 0.66 mL/cm^3 per min | BPND, VND method (SV2A [3]; Brainstem): 2.30 ± 0.99 | BPND, VT(CS) method (SV2A [3]; Brainstem): 0.8 ± 0.0 | K1 (SV2A [3]; Brainstem): 1.37 ± 1.26 mL/cm^3 per min | BPND, VND method (SV2A [3]; Caudate): 6.23 ± 2.96 | BPND, VT(CS) method (SV2A [3]; Caudate): 3.0 ± 0.4 | K1 (SV2A [3]; Caudate): 0.95 ± 0.49 mL/cm^3 per min | BPND, VND method (SV2A [3]; Cerebellum): 4.74 ± 1.81 | BPND, VT(CS) method (SV2A [3]; Cerebellum): 2.2 ± 0.2 | K1 (SV2A [3]; Cerebellum): 0.88 ± 0.41 mL/cm^3 per min | BPND, VND method (SV2A [3]; Cingulate cortex): 9.04 ± 3.59 | BPND, VT(CS) method (SV2A [3]; Cingulate cortex): 4.5 ± 0.4 | BPND, VND method (SV2A [3]; Frontal cortex): 8.64 ± 3.59 | BPND, VT(CS) method (SV2A [3]; Frontal cortex): 4.3 ± 0.6 | K1 (SV2A [3]; Frontal cortex): 0.79 ± 0.39 mL/cm^3 per min | BPND, VND method (SV2A [3]; Globus pallidus): 3.42 ± 1.90 | BPND, VT(CS) method (SV2A [3]; Globus pallidus): 1.4 ± 0.3 | K1 (SV2A [3]; Globus pallidus): 0.73 ± 0.49 mL/cm^3 per min | in vivo Kd ratio, Kd(tracer)/Kd([^18F]SDM-16) (SV2A [3]; Guo plot of baseline VT): 0.41 | BPND, VND method (SV2A [3]; Hippocampus): 5.19 ± 2.56 | BPND, VT(CS) method (SV2A [3]; Hippocampus): 2.4 ± 0.4 | K1 (SV2A [3]; Hippocampus): 0.68 ± 0.34 mL/cm^3 per min | BPND, VND method (SV2A [3]; Insular cortex): 8.41 ± 3.27 | BPND, VT(CS) method (SV2A [3]; Insular cortex): 4.2 ± 0.3 | K1 (SV2A [3]; Insular cortex): 0.93 ± 0.48 mL/cm^3 per min | K1 (SV2A [3]; Mean ± SD over brain regions): 0.91 ± 0.28 mL/cm^3 per min | BPND, VND method (SV2A [3]; Nucleus accumbens): 8.41 ± 3.54 | BPND, VT(CS) method (SV2A [3]; Nucleus accumbens): 4.1 ± 0.4 | K1 (SV2A [3]; Nucleus accumbens): 0.99 ± 0.63 mL/cm^3 per min | BPND, VND method (SV2A [3]; Occipital cortex): 7.61 ± 2.51 | BPND, VT(CS) method (SV2A [3]; Occipital cortex): 3.9 ± 0.2 | K1 (SV2A [3]; Occipital cortex): 0.88 ± 0.47 mL/cm^3 per min | BPND, VND method (SV2A [3]; Putamen): 6.41 ± 2.96 | BPND, VT(CS) method (SV2A [3]; Putamen): 2.9 ± 0.4 | K1 (SV2A [3]; Putamen): 1.25 ± 0.82 mL/cm^3 per min | BPND, VND method (SV2A [3]; Temporal cortex): 7.36 ± 2.64 | BPND, VT(CS) method (SV2A [3]; Temporal cortex): 3.7 ± 0.3 | K1 (SV2A [3]; Temporal cortex): 0.74 ± 0.34 mL/cm^3 per min | BPND, VND method (SV2A [3]; Thalamus): 6.59 ± 3.72 | BPND, VT(CS) method (SV2A [3]; Thalamus): 2.9 ± 0.7 | K1 (SV2A [3]; Thalamus): 0.93 ± 0.71 mL/cm^3 per min | VT (baseline) (SV2A [4]; Amygdala): 24.8 ± 8.5 mL/cm^3 | VT (baseline) (SV2A [4]; Brainstem): 16.3 ± 3.6 mL/cm^3 | VT (baseline) (SV2A [4]; Caudate): 35.0 ± 6.3 mL/cm^3 | VT (baseline) (SV2A [4]; Centrum semiovale): 8.9 ± 2.0 mL/cm^3 | VT (baseline) (SV2A [4]; Cerebellum): 28.9 ± 6.8 mL/cm^3 | VT (baseline) (SV2A [4]; Cingulate cortex): 48.5 ± 8.9 mL/cm^3 | VT (baseline) (SV2A [4]; Frontal cortex): 47.1 ± 9.1 mL/cm^3 | VT (baseline) (SV2A [4]; Globus pallidus): 21.6 ± 4.2 mL/cm^3 | VT (baseline) (SV2A [4]; Hippocampus): 30.1 ± 5.6 mL/cm^3 | VT (baseline) (SV2A [4]; Insular cortex): 46.1 ± 9.2 mL/cm^3 | VT (baseline) (SV2A [4]; Nucleus accumbens): 45.2 ± 7.9 mL/cm^3 | VT (baseline) (SV2A [4]; Occipital cortex): 43.7 ± 10.7 mL/cm^3 | VT (baseline) (SV2A [4]; Putamen): 34.6 ± 4.9 mL/cm^3 | VT (baseline) (SV2A [4]; Temporal cortex): 42.2 ± 10.0 mL/cm^3 | VT (baseline) (SV2A [4]; Thalamus): 34.2 ± 3.0 mL/cm^3 | fraction present in plasma as free base [5]: 81% | parent fraction in plasma [6]: 42 ± 13% | effective dose (ED) [7]: 20 µSv/MBq | VND (SV2A [8]): 4.96 mL/cm^3 | logP [9]: 2.32

lutidine
pKa exp. [10]: 6.77

Reference: PMC8940841, “A metabolically stable PET tracer for imaging synaptic vesicle protein 2A: synthesis and preclinical characterization of [^18F]SDM-16” (European Journal of Nuclear Medicine and Molecular Imaging, 2021)
